In patent publication US8106155B2, “Test kit for determining process for determining antibiotics containing a beta-lactam ring in a biological fluid” (Neogen Corporation, priority 1998, dated 2012):
Read-outs that look alike come from different tables or passages of the source.

Assays:
BlaR-CTD receptor [1] = target: T1, BlaR-CTD receptor (Bacillus licheniformis, UniProt P12287); assay: 3-minute rapid test: BlaR-CTD coupled to gold beads, membrane test device, milk; assay type: binding; conditions: 47° C.; for Intensity 1st band: 3-minute test, scale 0 to 10, reference band 6; for concentration detected in a sample of milk: test carried out in 3 minutes, positive when 1st band less intense than 2nd band
T1 construct: uses the BlaR-CTD receptor coupled to gold beads
Method: (§1) This example illustrates the detection in milk of antibiotics containing a β-lactam ring, which are controlled by the health authorities. The test described in this example uses the BlaR-CTD receptor coupled to gold beads which serve as labelling agents, and uses a support in the form of a test device comprising a solid support to which membranes are attached.
7 samples of fresh milk containing 0; 1; 2; 3; 4; 5 and 6 ppb of penicillin G, respectively, are prepared. Each of these solutions is then analyzed in the following way:
(§2) A 200 μl aliquot sample of milk and 45.27 μl of solution prepared in Example 1.1.3 are taken and placed in a glass flask. This mixture is incubated for 1 minute at 47° C. A test device is taken and placed vertically in the glass flask such that the first end of the test device is in contact with the mixture and such that the second end rests on the wall of the glass flask. The mixture is left to migrate on the test device, while incubating the assembly for 2 minutes at 47° C.
(§3) An intensity value ranging from 0 to 10 is attributed to the bands detected, the value 10 being given to the most intense band and the value 0 being given to the least intense band. According to this scale, a value of 6 is assigned to the reference band. The intensity of the signal observed in the first band is inversely proportional to the amount of penicillin G present in the sample.
(§4) In this example, when the first band has an intesity less than that of the second band, the test is considered as being positive.

BlaR-CTD receptor [2] = target: T1, BlaR-CTD receptor; assay: 9-minute test: BlaR-CTD coupled to gold beads, membrane test device, milk; assay type: binding; conditions: 47° C.; for concentration detected in a sample of milk: test carried out in 9 minutes, positive when 1st band less intense than 2nd band; for Intensity 1st band: 9-minute test, scale 0 to 10, reference band 6
Method: as §1
6 samples of fresh milk containing 0; 4; 6; 8; 10 and 12 ppb of cephapirin, respectively, are prepared. Each of these solutions is then analyzed in the following way.
as §2, with “7 minutes” for “1 minute”
as §3, with “cephapirin” for “penicillin G”
as §4

[3] = target: T2, BlaR-CTD receptor in the form of two fusion proteins with alkaline phosphatase and peroxidase (Bacillus licheniformis, UniProt P12287); assay: Example 3: BlaR-CTD fusion proteins with alkaline phosphatase and peroxidase, cephalosporin C microplate, milk; assay type: binding; conditions: absorbance at 405 nm, 47° C., at the control thresholds required by the US authorities
T2 construct: uses the BlaR-CTD receptor in the form of two fusion proteins with alkaline phosphatase and peroxidase, respectively; alkaline phosphatase, chemically coupled (Boehringer-Mannheim 1464752); peroxidase, chemically coupled (Boehringer-Mannheim 1428861)
Excerpt: This example illustrates the detection in milk of 3 antibiotics containing a β-lactam ring which are controlled by the health authorities. The test described in this example uses the BlaR-CTD receptor in the form of two fusion proteins with alkaline phosphatase and peroxidase, respectively, and uses a support in the form of a microplate.
Polystyrene microplates with high protein adsorption, of the brand name NUNK (Immuno Plate: Maxisorp type) or of the brand name GREINER (microlon 600, reference 705071), are used. The microplate cuvettes are washed with 150 mM, pH 7.2 PBS buffer. Next, an aliquot of the solution prepared in Example 3.3.1. is incubated for 24 hours at 4° C. in the cuvettes. After incubation, the cuvettes are washed three times with 150 mM, pH 7.2 PBS buffer, 0.1% Tween-20. The tube is then saturated for two hours at 20° C. with 150 mM, pH 7.2 PBS saturation buffer, 5% BSA. After washing three times with washing buffer, the tubes are dried and stored at 4° C. away from moisture.
For the cuvettes intended for the BlaR-CTD-alkaline phosphatase recognition agent, the washing buffer used is 1 M, pH 9.8 diethanolamine, 0.5 mM MgCl2: for the cuvettes intended for the BlaR-CTD-peroxidase recognition agent, the washing buffer used is 50 mM, pH 5 potassium phosphate.
1.4 picomol of labelled recognition agent are incubated in the presence of 100 μl of doped milk for 5 minutes at 47° C. The milk is transferred using a pipette into a cuvette which has been pretreated as indicated in Example 2.3. The milk is then incubated for 2 minutes at 47° C. […] The plate is then placed in an automatic spectrophotometer for ELISA plates, the wavelength being set at 405 nm.

[4] = test system: protein isolated from an antibiotic-sensitive microorganism, such as Bacillus stearothermophilus; conditions: Example 1 of European Patent Application 593 112; cited from earlier work
[5] = target: soluble exocellular D-alanyl-D-alanine carboxypeptidase (enzyme R39) (Actinomadura sp., UniProt P39045); conditions: cited from earlier work
BlaR-CTD receptor [6] = target: T1, BlaR-CTD receptor; assay: 20-minute test: BlaR-CTD coupled to gold beads, membrane test device, milk; assay type: binding; conditions: 47° C.; for Intensity 1st band: 20-minute test, scale 0 to 10, reference band 6
Method: as §1
6 samples of fresh milk containing 0; 20; 30; 40; 50 and 60 ppb of ceftiofur, respectively, are prepared. Each of these solutions is then analyzed in the following way.
as §2, with “18 minutes” for “1 minute”
as §3, with “ceftiofur” for “penicillin G”
In this example, when the first band has an intensity less than that of the second band, the test is considered as being positive.

T1 sequence (P12287 354-601): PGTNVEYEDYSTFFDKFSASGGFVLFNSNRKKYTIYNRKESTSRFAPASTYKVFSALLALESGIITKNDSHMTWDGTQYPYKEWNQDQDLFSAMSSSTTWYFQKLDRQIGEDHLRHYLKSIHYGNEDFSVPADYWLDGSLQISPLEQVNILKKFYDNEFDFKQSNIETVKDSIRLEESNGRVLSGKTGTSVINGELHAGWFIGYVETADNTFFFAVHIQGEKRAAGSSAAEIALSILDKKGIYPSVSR
T2 sequence (P12287 354-601): as above
Sequence of soluble exocellular D-alanyl-D-alanine carboxypeptidase (enzyme R39) (P39045 50-515): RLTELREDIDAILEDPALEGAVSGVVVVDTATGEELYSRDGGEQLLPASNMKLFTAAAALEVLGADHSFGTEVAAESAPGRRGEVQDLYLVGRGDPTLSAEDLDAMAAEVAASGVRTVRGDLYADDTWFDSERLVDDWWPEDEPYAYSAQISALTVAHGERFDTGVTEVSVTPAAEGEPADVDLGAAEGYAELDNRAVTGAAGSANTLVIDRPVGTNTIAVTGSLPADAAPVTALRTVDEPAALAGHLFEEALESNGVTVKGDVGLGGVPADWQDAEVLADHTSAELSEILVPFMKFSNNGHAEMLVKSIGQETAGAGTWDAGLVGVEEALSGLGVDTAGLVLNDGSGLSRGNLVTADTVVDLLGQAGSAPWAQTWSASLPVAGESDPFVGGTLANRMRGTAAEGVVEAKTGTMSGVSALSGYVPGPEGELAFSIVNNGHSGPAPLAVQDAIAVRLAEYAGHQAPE

CC1(C)S[C@@H]2[C@H](NC(=O)Cc3ccccc3)C(=O)N2[C@H]1C(=O)O [penicillin G]
Intensity 1st band (BlaR-CTD receptor [1]; 1 ppb penicillin G in milk): 9
Intensity 1st band (BlaR-CTD receptor [1]; 2 ppb penicillin G in milk): 9
Intensity 1st band (BlaR-CTD receptor [1]; 3 ppb penicillin G in milk): 4
Intensity 1st band (BlaR-CTD receptor [1]; 4 ppb penicillin G in milk): 0
Intensity 1st band (BlaR-CTD receptor [1]; 5 ppb penicillin G in milk): 0
Intensity 1st band (BlaR-CTD receptor [1]; 6 ppb penicillin G in milk): 0
concentration detected in a sample of milk (BlaR-CTD receptor [1]): less than 4 ppb
concentration detected in a sample of milk (BlaR-CTD receptor [2]): 3 ppb
concentration detected in milk [3]: 5 ppb
concentration detected [4]: ~5 ppb
concentration determined in milk ([5]; total incubation time of 5 minutes): 10 ppb
concentration determined in milk ([5]; total incubation time of 15 minutes): about 2.5 ppb

CO/N=C(\C(=O)N[C@@H]1C(=O)N2C(C(=O)O)=C(CSC(=O)c3ccco3)CS[C@H]12)c1csc(N)n1 [ceftiofur]
concentration detected in a sample of milk (BlaR-CTD receptor [2]): 80 ppb
Intensity 1st band (BlaR-CTD receptor [6]; 20 ppb ceftiofur in milk): 6
Intensity 1st band (BlaR-CTD receptor [6]; 30 ppb ceftiofur in milk): 5
Intensity 1st band (BlaR-CTD receptor [6]; 40 ppb ceftiofur in milk): 4
Intensity 1st band (BlaR-CTD receptor [6]; 50 ppb ceftiofur in milk): 3
Intensity 1st band (BlaR-CTD receptor [6]; 60 ppb ceftiofur in milk): 3
concentration detected in a sample of milk (BlaR-CTD receptor [6]; test in 20 minutes, positive when 1st band less intense than 2nd band): 30 ppb
concentration detected in milk [3]: 50 ppb
concentration detected [4]: 5 ppb

CC(=O)OCC1=C(C(=O)O)N2C(=O)[C@@H](NC(=O)CSc3ccncc3)[C@H]2SC1 [cephapirin]
concentration detected in a sample of milk (BlaR-CTD receptor [1]): 20 ppb
Intensity 1st band (BlaR-CTD receptor [2]; 4 ppb cephapirin in milk): 6
Intensity 1st band (BlaR-CTD receptor [2]; 6 ppb cephapirin in milk): 5
Intensity 1st band (BlaR-CTD receptor [2]; 8 ppb cephapirin in milk): 4
Intensity 1st band (BlaR-CTD receptor [2]; 10 ppb cephapirin in milk): 3
Intensity 1st band (BlaR-CTD receptor [2]; 12 ppb cephapirin in milk): 3
concentration detected in a sample of milk (BlaR-CTD receptor [2]): 6 ppb
concentration detected [4]: 5 ppb
